Laboratory results taken from patent publication US5733563A, “Albumin based hydrogel” (Universite du Quebec a Montreal, priority 1996, dated 1998).

Tests used:
[1] = molecular target: asparaginase of E.coli immobilized in hydrogel prepared with albumin and PEG 10,000 (Escherichia coli, UniProt P00805); test: Apparent Km of asparaginase immobilized in albumin-PEG 10,000 hydrogel; assay type: biochemical; conditions: slab thickness of 3 mm
Procedure: (§1) As another example of enzyme immobilization in hydrogels prepared with albumin and PEG 10,000 of Mr, the enzyme asparaginase of E.coli was used. […] The operational stability of the immobilized enzyme in presence of a continuous feeding in substrate extend at 37° C. over a 20 days period without significant loss of activity.

[2] = substrate: NC(=O)C[C@H](N)C(=O)O; test: Km of soluble asparaginase for asparagine; assay type: biochemical, E.coli; conditions: other: soluble form of the enzyme; pH 8.0; 37.0 °C
Procedure: as §1

Molecule | apparent Km for the substrate asparagine [1] [µM] | Km [2] [µM]
NC(=O)C[C@H](N)C(=O)O [asparagine] | 2.4 | 
asparaginase of E.coli, soluble form (Escherichia coli K-12) (protein) LPNITILATGGTIAGGGDSATKSNYTVGKVGVENLVNAVPQLKDIANVKGEQVVNIGSQDMNDNVWLTLAKKINTDCDKTDGFVITHGTDTMEETAYFLDLTVKCDKPVVMVGAMRPSTSMSADGPFNLYNAVVTAADKASANRGVLVVMNDTVLDGRDVTKTNTTDVATFKSVNYGPLGYIHNGKIDYQRTPARKHTSDTPFDVSKLNELPKVGIVYNYANASDLPAKALVDAGYDGIVSAGVGNGNLYKSVFDTLATAAKTGTAVVRSSRVPTGATTQDAEVDDAKYGFVASGTLNPQKARVLLQLALTQTKDPQQIQQIFNQY |  | 2.2
